This is an account of results in patent US20240225971A1 (Genomatica, Inc., priority 2021, published 2024).

Data set [1] in a line: physchem. The source says:
The term “fragrance composition” or “composition,” as used herein, represents a composition containing one or more fragrance ingredients described here and formulated with a physiologically acceptable diluent or solvent, used interchangeably here. In a fragrance composition, or composition that has a fragrance, such as a perfume, 20%-40% of the observable liquid may be comprised of a diluent, i.e., the delivery system for scents of the fragrance ingredients. The “log P” value, as used here, indicates whether a substance or fragrance ingredient will be absorbed by humans, animals, plants, or living tissue; diffused or disseminated by water.
(§1) Also included is the molecular weight of each of the fragrance ingredients. Not determinable (ND).

The nature of data set [2]: Water solubility at 25° C. of fragrance ingredients.
Description: as §1

Data set [3] is described as follows: Vapor pressure of fragrance ingredients.
Description: as §1

A short description of data set [4]: Flash point of fragrance ingredients. The data set is classed as physicochemical.
Description: as §1

A short description of data set [5]: Clarity of fragrance ingredient in bioderived 1,3-BG by visual observation.
Description: Clarity for each of the fragrance ingredients (10% in bioderived 1,3-BG) was determined by visual observations after compounding and blending the fragrance ingredient with bioderived 1,3-BG and identified as clear, slightly haze, cloudy, particles, or separation.
Clarity for each of the fragrance ingredients (at 1% in bioderived 1,3-BG) was determined by visual observations after compounding and blending the fragrance ingredient with bioderived 1,3-BG and identified as clear, slightly haze, cloudy, particles, or separation.
The mark [6] stands for this setting: 10% ingredient in bioderived 1,3-BG, clear, slightly haze, cloudy, particles, or separation.

In brackets after ≈: the same amount, converted by molar mass. Read-outs that look alike come from different tables or passages of the source.

As to `CC1CC=CCCCCCCCCCC(=O)C1` (stereo not shown) [Muscenone], the logP in data set [1] came out at 4.88. Further, the “Water Solubility” value in data set [2] (25° C.) worked out at 0.346 µg/mL. The “Vapor Pressure” value in data set [3] turned out to be 0.1 mm hg. Moreover, the “Flash Point” value in data set [4] turned out to be 100 °C. In addition, the “Clarity 10%” value in data set [5] (setting [6]) is “Cloudy”.

`C=CCCCCCCCCC=O` [Aldehyde C-11 Undecylenic] displayed a logP in data set [1] of 4.072. Further, the “Water Solubility” value in data set [2] (25° C.) is 30.000 µg/mL. In addition, the “Vapor Pressure” value in data set [3] came out at 0.039 mm hg. For the same compound, the “Flash Point” value in data set [4] turned out to be 76 °C.

`CC1(O)CCC2C(=CCCC2(C)C)C1` (stereo not shown) [Ambrinol] had a logP in data set [1] of 3.785. Further, in data set [2], the “Water Solubility” value came out at 134.300 µg/mL. Besides, the “Vapor Pressure” value in data set [3] turned out to be 0.0005 mm hg. In addition, the “Flash Point” value in data set [4] came to 100 °C. Moreover, in data set [5] (setting [6]), the “Clarity 10%” value is “Clear”.

`C=C(C)[C@@H]1CCC2=CC(=O)C[C@@H](C)[C@]2(C)C1` [Nootkatone] came in with a logP in data set [1] of 3.77. Moreover, the solubility in data set [2] (25 °C, water) was determined as 2.38 µg/mL (≈ 10.9 µM). Also, the “Vapor Pressure” value in data set [3] came to 0.000358 mm hg. In addition, the “Flash Point” value in data set [4] worked out at 110 °C. For the same compound, the “Clarity 10%” value in data set [5] (setting [6]) is “Clear”.

In turn, `CCOC(=O)CC1(C)OCCO1` [Fructone] registered a logP in data set [1] of 0.982. In addition, the “Water Solubility” value in data set [2] (25° C.) was 100.000 µg/mL. Moreover, the “Vapor Pressure” value in data set [3] came to 0.219 mm hg. In addition, the “Flash Point” value in data set [4] amounted to 93 °C. For the same compound, the “Clarity 10%” value in data set [5] (setting [6]) is “Clear”.

As to `CC(=O)OCCC(C)C` [Isoamyl Acetate], the “Water Solubility” value in data set [2] (25° C.) was found to be 2000.000 µg/mL. In data set [3], the “Vapor Pressure” value is reported as 5.6 mm hg. Moreover, the “Flash Point” value in data set [4] worked out at 38 °C. For the same compound, the “Clarity 10%” value in data set [5] (setting [6]) was “Clear”.

Compound `C=CCOC(=O)COCCC(C)C` [Allyl Amyl Glycolate] displayed a lipophilicity (logP) in data set [1] of 2.7. The “Water Solubility” value in data set [2] (25° C.) was 510.700 µg/mL. Further, the “Vapor Pressure” value in data set [3] worked out at 0.04 mm hg. For the same compound, the “Flash Point” value in data set [4] came out at 93 °C.

In data set [1], `O=Cc1ccc2c(c1)OCO2` [Heliotropine] yielded a logP of 1.05. The “Water Solubility” value in data set [2] turned out to be 3500.000 µg/mL. In addition, in data set [3], the “Vapor Pressure” value worked out at 0.003 mm hg. In addition, the “Flash Point” value in data set [4] turned out to be 110 °C. In data set [5], the “Clarity 1%” value is “Clear” and the “Clarity 10%” value is listed as “Clear”.

`CC1=CC(C)C(C=O)CC1` (stereo not shown) [Cyclal C/Triplal] yielded a logP in data set [1] of 3. The “Water Solubility” value in data set [2] turned out to be 311.500 µg/mL. Also, the “Vapor Pressure” value in data set [3] came to 0.578 mm hg. In data set [4], the “Flash Point” value turned out to be 66 °C. In addition, the “Clarity 10%” value in data set [5] (setting [6]) is “Clear”.

Regarding `CC1C(C)(C)C2=C(C(=O)CCC2)C1(C)C` (stereo not shown) [Cashmeran], the logP in data set [1] was 4.5. Moreover, the “Water Solubility” value in data set [2] (25° C.) was found to be 5.937 µg/mL. Also, in data set [3], the “Vapor Pressure” value was 0.003 mm hg. In data set [4], the “Flash Point” value came to 94 °C. Besides, the “Clarity 10%” value in data set [5] (setting [6]) was “Clear”.

In turn, `C=CC(C)(CCC=C(C)C)OC(C)=O` (stereo not shown) [Linalyl Acetate] returned a logP in data set [1] of 3.93. The solubility in data set [2] (25 °C, water) turned out to be 20.1 µg/mL. For the same compound, the “Vapor Pressure” value in data set [3] was determined as 0.116 mm hg. The “Flash Point” value in data set [4] came to 94 °C. Also, in data set [5], the “Clarity 1%” value is listed as “Clear”.

With `CCOc1cc(C=O)ccc1O` [Ethyl Vanillin], in data set [2], the “Water Solubility” value came to 2820.000 µg/mL. Besides, the “Vapor Pressure” value in data set [3] is recorded as 0.001 mm hg. The “Flash Point” value in data set [4] is 127 °C. Moreover, the “Clarity 10%” value in data set [5] (setting [6]) is “Clear”.

Take `CC(=O)C(C)=CC1C(C)=CCCC1(C)C` (stereo not shown) [Methyl Ionone Gamma]: the lipophilicity (logP) in data set [1] was found to be 4.315. Besides, the “Water Solubility” value in data set [2] is 2.980 µg/mL. Also, the “Vapor Pressure” value in data set [3] was determined as 0.006 mm hg. Moreover, the “Flash Point” value in data set [4] was determined as 110 °C. In data set [5] (setting [6]), the “Clarity 10%” value is recorded as “Cloudy”.

`CC/C(=C\CC1CC=C(C)C1(C)C)CO` (stereo not shown) [Bacdanol]: in data set [1], the log partition coefficient (logP) came out at 4.3. Also, the “Water Solubility” value in data set [2] (25° C.) was determined as 17.000 µg/mL. Further, the “Vapor Pressure” value in data set [3] was 0.00028 mm hg. The “Flash Point” value in data set [4] worked out at 199 °C. Further, the “Clarity 10%” value in data set [5] (setting [6]) is “Clear”.

In data set [1], `CC/C=C\CCO` [Cis-3-Hexenol] had a logP of 1.7. Further, the “Vapor Pressure” value in data set [3] is recorded as 1.039 mm hg. In addition, the “Flash Point” value in data set [4] is 44 °C. Further, the “Clarity 10%” value in data set [5] (setting [6]) was “Clear”.

With `CCCCCCCCCC=O` [Aldehyde C-10], in data set [1], the logP amounted to 3.97. In addition, the “Water Solubility” value in data set [2] (25° C.) turned out to be 43.520 µg/mL. For the same compound, the “Vapor Pressure” value in data set [3] was 0.207 mm hg. Also, the “Flash Point” value in data set [4] stood at 82 °C.

Take `CC(=O)C1=C(C)C2CC3(C1)C(C)CCC3C2(C)C` (stereo not shown) [Vertofix Coeur]: the logP in data set [1] came out at 5.6. Moreover, in data set [3], the “Vapor Pressure” value came out at 0.000084 mm hg. In addition, in data set [4], the “Flash Point” value came out at 100 °C. The “Clarity 10%” value in data set [5] (setting [6]) is reported as “Cloudy”.

Take `C=CC(C)(O)CCC=C(C)C` (stereo not shown) [Linalool]: the “Vapor Pressure” value in data set [3] was 0.016 mm hg. The “Flash Point” value in data set [4] worked out at 75 °C. In addition, the “Clarity 10%” value in data set [5] (setting [6]) is reported as “Clear”.

With `CC(=O)OCc1ccccc1` [Benzyl Acetate], in data set [3], the “Vapor Pressure” value is recorded as 0.177 mm hg. Also, in data set [4], the “Flash Point” value amounted to 91 °C. In addition, in data set [5] (setting [6]), the “Clarity 10%” value was “Clear”.

The compound `c1ccc(COCc2ccccc2)cc1` [Dibenzyl Ether] returned a logP in data set [1] of 3.31. This compound had a solubility in data set [2] (water, 25 °C) of 40 µg/mL (≈ 202 µM). Besides, in data set [3], the “Vapor Pressure” value amounted to 0.00103 mm hg. For the same compound, the “Flash Point” value in data set [4] stood at 93 °C. Besides, in data set [5] (setting [6]), the “Clarity 10%” value was “Cloudy”.

In data set [1], `CC(=O)OC(C)(C)C1CC=C(C)CC1` (stereo not shown) [Terpinyl Acetate] came in with a logP of 3.59. In addition, the “Water Solubility” value in data set [2] (25° C.) was determined as 18.970 µg/mL. Besides, in data set [3], the “Vapor Pressure” value stood at 0.058 mm hg. Also, the “Flash Point” value in data set [4] is 100 °C. In addition, the “Clarity 1%” value in data set [5] is recorded as “Clear”.

`CC/C=C\CCOC(=O)c1ccccc1O` [Cis-3-Hexenyl Salicylate] gave a lipophilicity (logP) in data set [1] of 4.4. Moreover, in data set [2] (water, 25 °C), the concentration in solution (solubility) came to 9.52 µg/mL (≈ 43.2 µM). For the same compound, the “Vapor Pressure” value in data set [3] was 0.000246 mm hg. Also, the “Flash Point” value in data set [4] was 110 °C. In addition, the “Clarity 10%” value in data set [5] (setting [6]) is given as “Cloudy”.

Turning to `CC=Cc1ccc(OC)cc1` [Anethole], in data set [3], the “Vapor Pressure” value turned out to be 0.069 mm hg. Besides, the “Flash Point” value in data set [4] stood at 110 °C. Also, the “Clarity 10%” value in data set [5] (setting [6]) is “Cloudy”.

Take `CC(=O)C1(C)CC2=C(CCCC2(C)C)CC1C` (stereo not shown) [Iso E Super]: the logP in data set [1] is reported as 4.71. For the same compound, the “Vapor Pressure” value in data set [3] turned out to be 0.001 mm hg. For the same compound, the “Flash Point” value in data set [4] turned out to be 111 °C. The “Clarity 10%” value in data set [5] (setting [6]) was “Cloudy”.

On to `COc1cc(C=O)ccc1O` [Vanillin], for which, in data set [2] (water, 25 °C), the concentration in solution (solubility) was 6880 µg/mL (≈ 45200 µM). For the same compound, the “Vapor Pressure” value in data set [3] turned out to be 0.002 mm hg. In data set [4], the “Flash Point” value came out at 153 °C. Besides, the “Clarity 10%” value in data set [5] (setting [6]) was “Clear”.

Take `CC1(C)CCC[C@]2(C)[C@H]3CCO[C@]3(C)CC[C@@H]12` [Ambrox Super (Ambroxan), Ambroxan]: the “Vapor Pressure” value in data set [3] stood at 0.009 mm hg. Also, in data set [4], the “Flash Point” value stood at 100 °C. In addition, in data set [5] (setting [6]), the “Clarity 10%” value was “Particles”.

Take `COc1ccc(C=O)cc1` [Anisic Aldehyde]: in data set [2], the “Water Solubility” value turned out to be 4290.000 µg/mL. Moreover, the “Vapor Pressure” value in data set [3] turned out to be 1 mm hg. The “Flash Point” value in data set [4] was determined as 116 °C. In addition, in data set [5] (setting [6]), the “Clarity 10%” value was “Clear”.

For the compound `CC(C)=CCCC(C)=CC=O` [Citral], in data set [3], the “Vapor Pressure” value is 0.2 mm hg. In addition, the “Flash Point” value in data set [4] worked out at 98 °C. Besides, the “Clarity 10%” value in data set [5] (setting [6]) is “Clear”.
